A short description of data set [1]: Metabolic stability in human liver microsomes. Type of data set: in vitro ADME. To be noted: pH 7.4, 0.5 mg/mL microsomes, NADPH, 45 minutes, 37° C., read-out: Half-life in liver microsomes (t1/2). As for the experimental part:
(§1) Microsomal stability. Microsomal stability assays were conducted on a Beckmann Biomek FXp laboratory automation system. The liver microsomal incubation mixture consisted of liver microsomes (0.5 mg microsomal protein/mL), the Compound (1 μM), MgCl2 (3 mM), and EDTA (1 mM) in potassium phosphate buffer (100 mM, pH 7.4). Midazolam and Ketanserin were used as the assay control substrates. The reaction was initiated with the addition of an NADPH regeneration solution (1.3 mM NADPH) and maintained at 37° C. with shaking. At five time points ranging from 0 to 45 min, aliquots (50 μL) were removed and quenched with acetonitrile (100 μL) containing an internal standard (imipramine). After vortex and centrifugation, samples were analyzed by LC-MS/MS. Calculation of the in vitro half-lives and clearance followed literature guidelines.

Data set [2] has as its target T1, GST-CBP (1081-1197) bromodomain (Homo sapiens, UniProt Q92793).
T1 construct: The GST tagged bromodomains of CBP (1081-1197) and BRD4 (49-170) were obtained from BPS Bioscience; purchased BPS Bioscience
Put plainly: CBP AlphaScreen assay. Particulars: binding to biotin-H4 (1-21) Ac-K5/8/12/16. As for the experimental part:
Specific binding of the CBP or BRD4 bromodomain to the acetylated peptide derived from the H4 histone substrate (tetra acetylated H4 (1-21) Ac—K5/8/12/16) was measured in absence or presence of inhibitors. The GST tagged bromodomains of CBP (1081-1197) and BRD4 (49-170) were obtained from BPS Bioscience and binding to the biotinylated H4 (1-21) Ac—K5/8/12/16 (AnaSpec. 64989) was assessed via AlphaScreen technology (Perkin Elmer).
CBP AlphaScreen assay: 5 nM GST-CBP (1081-1197) and 20 nM biotin-H4 (1-21) Ac—K5/8/12/16 (AnaSpec. 64989) were incubated with varying concentrations of CBP inhibitors in 15 μL of buffer containing 50 mM HEPES 7.5, […], 1 mM TCEP, and 0.003% Tween-20. After 30 minutes incubation at room temperature, 15 μL of detection buffer (BPS Bio. 33006) containing 7 μg/mL of Glutathione AlphaLisa acceptor beads (Perkin Elmer AL109) and 14 μg/mL of Streptavidin donor beads (Perkin Elmer 676002) was then added to the previous mixture. The reaction was incubated for an additional 2 hours at room temperature, and the AlphaScreen signal was quantified using the Envision Multilabel plate reader. As negative control, GST-CBP (1081-1197) was incubated with the non-acetylated biotin-H4 (1-21) peptide (AnaSpec. 62555) and in presence of 0.25% of final DMSO concentration.
BRD4 AlphaScreen assay: The binding of 2.5 nM of BRD4 (49-170) to 10 nM biotin-H4 (1-21) Ac—K5/8/12/16 (AnaSpec. 64989) was assessed following the same procedure described for the CBP assay. The standard dose response curves were fitted by Genedata Screener software using the variable-slope model: Signal=Signalnegative control+(SignalDMSO control−Signalnegative control)/(1+(IC50/Dose)∧Hill slope).
Only Signal and Dose in the equation were treated as known values.
A general note: Alpha assays give light when donor and acceptor beads are brought close together.

Data set [3] in a line: In vivo pharmacokinetics after a single dose, dog. To be noted: male, plasma, Beagle dog. The procedure:
(§2) IV (intravenous) doses were formulated in 20% DMSO+60% PEG400+20% water. PO (per os) doses were formulated in 0.5% methylcellulose in water.
Dog: Male Beagle dogs (purchased from Beijing Marshall Biotechnology Co., Ltd) weighing 7-10 kg were used for studies. Animals were fasted overnight and fed 4 h postdose. Test article was administered to dogs via the cephalic vein (IV doses) or oral gavage (PO doses). Blood samples were collected via the saphenous vein or cephalic vein from all animals at predose and 0.083, 0.25, 0.5, 1, 2, 4, 8, and 24 h postdose into tubes containing the anticoagulant K2EDTA. Plasma was separated from the blood by centrifugation at 4° C. and stored at −70° C. until analysis. Test article concentrations in plasma were quantified using a liquid chromatography with tandem mass spectrometry (LC-MS/MS) method.

The nature of data set [4]: Metabolic stability in mouse liver microsomes. The class given is in vitro ADME, CD-1 mouse. Particulars: CD-1, liver microsomes, pH 7.4, 0.5 mg/mL microsomes, NADPH, 45 minutes, 37° C., read-out: Half-life in liver microsomes (t1/2). As for the experimental part: as §1
(In general: Liver microsomes are vesicles of endoplasmic reticulum, rich in cytochrome P450 enzymes.)

Data set [5] is described as follows: Metabolic stability in monkey liver microsomes. Type of data set: in vitro ADME. To be noted: pH 7.4, read-out: Liver microsomal clearance (t1/2). The procedure: as §1
Data set [6] is described as follows: Metabolic stability in dog liver microsomes. The class given is in vitro ADME. To be noted: pH 7.4, read-out: Liver microsomal clearance (t1/2). As for the experimental part:
as §1

The nature of data set [7]: In vivo pharmacokinetics after a single dose, mouse. Also noted: species or system Female CD-1 Mice. The procedure: as §2
Mouse: Female mice (CD1 strain, purchased from Shanghai JH Laboratory Animal Co. LTD) weighing 20-30 g were used for studies. Food and water were available to all animals ad libitum. The test article was dosed via tail vein (IV doses) or oral gavage (PO doses), respectively. Blood samples were collected from all animals at predose and at 0.083, 0.25, 0.5, 1, 2, 4, 8, and 24 h postdose into tubes containing the anticoagulant K2EDTA (3 animals per time point with 3 time points collected per animal). Plasma was separated from the blood by centrifugation at 4° C. and stored at −70° C. until analysis. Test article concentrations in plasma were quantified using a liquid chromatography with tandem mass spectrometry (LC-MS/MS) method.

Data set [8] can be described thus: In vivo pharmacokinetics after a single dose, rat. Particulars: male, plasma, Sprague-Dawley rat. The procedure:
as §2
Rat: Male rats (SD strain, purchased from Shanghai JH Laboratory Animal Co. LTD) weighing 200-300 g were used for studies. Animals were fasted overnight and fed 4 h postdose. Water was available ad libitum for all animals. Test article was dosed via dorsal foot vein (IV doses) or oral gavage (PO doses). Blood samples were collected via tail vein from all animals at predose and at 0.083, 0.25, 0.5, 1, 2, 4, 8, and 24 h postdose into tubes containing the anticoagulant K2EDTA. Plasma was separated from the blood by centrifugation at 4° C. and stored at −70° C. until analysis. Test article concentrations in plasma were quantified using a liquid chromatography with tandem mass spectrometry (LC-MS/MS) method.

[9] abbreviates: 1 mg/kg IV single dose, read-out: Vss.
Setting [10] is: plasma, Female CD-1 mice, single dose 0.2 or 0.3 mg/kg IV.

The values below come from patent US12559497B2, “Imidazopiperazine inhibitors of transcription activating proteins” (Board of Regents, The University of Texas System, priority 2020, dated 2026).

T1 sequence (Q92793 1081-1197): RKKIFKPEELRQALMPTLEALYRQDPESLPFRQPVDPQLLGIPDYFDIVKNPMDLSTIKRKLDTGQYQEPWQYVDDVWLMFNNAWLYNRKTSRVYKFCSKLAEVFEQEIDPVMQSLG

As usually defined, the IC50 is the concentration that inhibits the measured activity by half. One may read the clearance as the volume of plasma or blood freed of the substance per unit of time. Usually AUC(0-t) stands for the area under the concentration-time curve up to a stated or last time point. Broadly, the Cmax is the maximum level reached in the sampled fluid or tissue. For `CC(=O)N1CCn2c(C3CCOCC3)nc(-c3cccc4cc(-c5cnc(C)s5)ncc34)c2C1` [Compound 1, 1-(1-(3-(2-methylthiazol-5-yl)isoquinolin-8-yl)-3-(tetrahydro-2H-pyran-4-yl)-5,6-dihydroimidazo[1,5-α]pyrazin-7 (8H)-yl)ethan-1-one], the half-life at 1 μM was 5.17 h in data set [1], 6.55 h in data set [4], 1.62 h in data set [5] and 11.9 h in data set [6]. Further, in data set [2], the IC50 came out at 7 nM. Also, the clearance in data set [3] (1 mg/kg IV single dose) was 4.3 mL/min/kg; in data set [7] (setting [10]), 6.2 mL/min/kg; in data set [8] (1 mg/kg IV single dose), 11.2 mL/min/kg. Also, the figures for the half-life in data set [3] (1 mg/kg IV single dose), in data set [7] (setting [10]) and in data set [8] (1 mg/kg IV single dose) were 9.74 h, 2.99 h and 3.82 h, respectively. Moreover, the Vd in data set [3] (setting [9]) was determined as 3.38 L/kg; in data set [7] (plasma, Female CD-1 mice, single dose 0.2 or 0.3 mg/kg IV, read-out: Vss), 1.45 L/kg; in data set [8] (setting [9]), 2.31 L/kg. For the same molecule, the AUC(0-t) turned out to be 26.2 µM·h in data set [3] (3 mg/kg PO single dose) and 124 µM·h in data set [8] (30 mg/kg PO single dose). Besides, the Cmax in data set [3] (3 mg/kg PO single dose) is 2.56 µM; in data set [8] (30 mg/kg PO single dose), 23 µM. Also, the bioavailability in data set [3] (3 mg/kg PO single dose) amounted to 119%; in data set [8] (30 mg/kg PO single dose), 129%. Further, the “mouse in vivo clearances compared to the structural analogs previously disclosed” value in data set [7] (in words) is “dramatic decrease”. Also, the “mouse in vivo half-lives compared to the structural analogs previously disclosed” value in data set [7] (in words) is listed as “increase”.
